# Data reported in US20100063273A1, “NOVEL CRYSTAL OF PIPERACILLIN SODIUM” (Toyama Chemical Co., Ltd, priority 2007, published 2010).
# Legend:
# Assay type in all cases: physicochemical
# [1] = Hygroscopic test; details: for Ratio of change of weight: 25° C., three days; for Hygroscopic (moisture absorption) stability compared with the amorphous body: result in words
# Method: (§1) As test substances, the V type crystal (Example 1), the VI type crystal (Example 2) and the amorphous body (Comparative example 1) were used.
# Test substances were allowed to stand at 25° C. for three days under 7, 11, 22, 33 and 57% relative humidity, the content of moisture was measured according to Japanese pharmacopoeia, general tests, water determination method (Karl Fischer's method) and the changes of weight were calculated.
# [2] = Coloration stability test (storage at 60° C.); details: for Coloration stability of exterior appearance: 60° C. storage, result in words
# Method: as §1
# Test substance 2.2 g was put in a C2 vial made by Daiichi Glass Co., Ltd., and after the vial was filled with nitrogen gas, the vial was stored at 60° C. After the initiation of the test, the color difference (ΔE), degree of whiteness (W) and yellowness (YI) of each test substances were measured by a color-difference meter at 1 week, 2 weeks and 4 weeks later.
# [3] = Purity stability test (storage at 60° C.); details: for Purity stability: 60° C. storage, result in words
# Method: as §1
# Test substance 2.2 g was put in a C2 vial made by Daiichi Glass Co., Ltd., and after the vial was filled with nitrogen gas, the vial was stored at 60° C. After the initiation of the test, the purity of each test substances was measured by high-performance liquid chromatographic method at 1 week, 2 weeks and 4 weeks later (a notice of the 340th Apr. 4, 2001 by Ministry of Health and Welfare medicinal safe directors of bureaus).
# [4] = Light exposure stability test; details: for By-product I / Piperacillin / Total amount of relative substances: Initiation of test
# Method: As test substances, the VI type crystal (Example 2) and the amorphous body (Comparative example 1) were used.
# Test substance 2.2 g was put in a C2 vial made by Daiichi Glass Co., Ltd., and after the vial was filled with nitrogen gas, the vial was radiated ([…] 1×/hr) with D65 lamp (FLR20S-D-EDL-D65/M) at 25° C.
# After the initiation of the test and the radiation of […] 1×/hr, the purity of each test substances was measured by high-performance liquid chromatographic method (a notice of the 340th Apr. 4, 2001 by Ministry of Health and Welfare medicinal safe directors of bureaus).
# [5] = Light exposure stability test; details: D65 lamp, 25° C., 1.20 million lx·hr
# [6] = Dissolution test; details: for Dissolution time: 2.2 g in injectable water 10 mL, shaken, complete dissolution by unaided eye, mean of three, sodium monohydrate; for Dissolution compared with the amorphous body: result in words
# Method: as §1
# Test substance 2.2 g was put in a C2 vial made by Daiichi Glass Co., Ltd., injectable water 10 mL was added to the vial, the vial was fixed laterally and was shaken by MRK incubator-shaker (4 cm of shaking width, 48 times/minute of shaking rate).
# Complete dissolution was judged by an unaided eye, and the length of time to need for the complete dissolution was measured.
# The test was carried out at three times respectively, and those mean values were assumed to the dissolution time.
# [7] = 60° C., 1 week, nitrogen-filled vial
# [8] = 60° C., 2 weeks, nitrogen-filled vial
# [9] = 60° C., 4 weeks, nitrogen-filled vial
# [10] = 7% relative humidity, sodium monohydrate
# [11] = 11% relative humidity, sodium monohydrate
# [12] = 22% relative humidity, sodium monohydrate
# [13] = 33% relative humidity, sodium monohydrate
# [14] = 57% relative humidity, sodium monohydrate
# [15] = 60° C., 1 week, sodium monohydrate
# [16] = 60° C., 2 weeks, sodium monohydrate
# [17] = 60° C., 4 weeks, sodium monohydrate
# [18] = Initiation of test, sodium monohydrate
# [19] = 60° C., 1 week, nitrogen-filled vial, sodium monohydrate
# [20] = 60° C., 2 weeks, nitrogen-filled vial, sodium monohydrate
# [21] = 60° C., 4 weeks, nitrogen-filled vial, sodium monohydrate
compound,measurement,setting,value
"CCN1CCN(C(=O)N[C@@H](C(=O)N[C@@H]2C(=O)N3[C@@H]2SC(C)(C)[C@@H]3C(=O)[O-])c2ccccc2)C(=O)C1=O.[Na+] [Comparative example 1, piperacillin sodium]",Ratio of change of weight,[1]; 7% relative humidity,2.20 w/w %
same,Ratio of change of weight,[1]; 11% relative humidity,3.12 w/w %
same,Ratio of change of weight,[1]; 22% relative humidity,4.99 w/w %
same,Ratio of change of weight,[1]; 33% relative humidity,6.78 w/w %
same,Ratio of change of weight,[1]; 57% relative humidity,11.03 w/w %
same,Color difference (ΔE),"[2]; 60° C., 1 week",2.76
same,Degree of whiteness (W),"[2]; 60° C., 1 week",94.66
same,Degree of yellowness (YI),"[2]; 60° C., 1 week",6.51
same,Color difference (ΔE),"[2]; 60° C., 2 weeks",4.27
same,Degree of whiteness (W),"[2]; 60° C., 2 weeks",93.29
same,Degree of yellowness (YI),"[2]; 60° C., 2 weeks",8.97
same,Color difference (ΔE),"[2]; 60° C., 4 weeks",5.73
same,Degree of whiteness (W),"[2]; 60° C., 4 weeks",91.87
same,Degree of yellowness (YI),"[2]; 60° C., 4 weeks",11.25
same,Degree of whiteness (W),[2]; Initiation of test,96.86
same,Degree of yellowness (YI),[2]; Initiation of test,2.17
same,By-product I,[3]; [7],0.80
same,Decomposition product I,[3]; [7],0.13
same,Piperacillin,[3]; [7],98.27
same,By-product I,[3]; [8],0.97
same,Decomposition product I,[3]; [8],0.17
same,Piperacillin,[3]; [8],98.05
same,By-product I,[3]; [9],1.21
same,Decomposition product I,[3]; [9],0.30
same,Piperacillin,[3]; [9],97.04
same,By-product I,[3]; Initiation of test,0.22
same,Decomposition product I,[3]; Initiation of test,0.01
same,Piperacillin,[3]; Initiation of test,99.51
same,By-product I,[4],0.23
same,Piperacillin,[4],99.10
same,Total amount of relative substances,[4],0.90
same,By-product I,[5],0.31
same,Piperacillin,[5],98.86
same,Total amount of relative substances,[5],1.14
"CCN1CCN(C(=O)N[C@@H](C(=O)N[C@@H]2C(=O)N3[C@@H]2SC(C)(C)[C@@H]3C(=O)O)c2ccccc2)C(=O)C1=O [Example 1, piperacillin sodium monohydrate]",Ratio of change of weight,[1]; [10],0 w/w %
same,Ratio of change of weight,[1]; [11],0.93 w/w %
same,Ratio of change of weight,[1]; [12],3.18 w/w %
same,Ratio of change of weight,[1]; [13],4.77 w/w %
same,Ratio of change of weight,[1]; [14],8.43 w/w %
same,Hygroscopic (moisture absorption) stability compared with the amorphous body,"[1]; listed as V type crystal, sodium monohydrate",superior in the moisture absorption stability to the amorphous body
same,Coloration stability of exterior appearance,[2],stable
same,Color difference (ΔE),[2]; [15],0.60
same,Degree of whiteness (W),[2]; [15],96.64
same,Degree of yellowness (YI),[2]; [15],1.77
same,Color difference (ΔE),[2]; [16],0.69
same,Degree of whiteness (W),[2]; [16],96.55
same,Degree of yellowness (YI),[2]; [16],1.96
same,Color difference (ΔE),[2]; [17],1.33
same,Degree of whiteness (W),[2]; [17],96.20
same,Degree of yellowness (YI),[2]; [17],3.03
same,Degree of whiteness (W),[2]; [18],96.45
same,Degree of yellowness (YI),[2]; [18],0.94
same,Purity stability,[3],stable
same,By-product I,[3]; [19],0.21
same,Decomposition product I,[3]; [19],0.03
same,Piperacillin,[3]; [19],99.66
same,By-product I,[3]; [20],0.33
same,Decomposition product I,[3]; [20],0.08
same,Piperacillin,[3]; [20],99.37
same,By-product I,[3]; [21],0.59
same,Decomposition product I,[3]; [21],0.26
same,Piperacillin,[3]; [21],98.62
same,Decomposition product I,[3]; Initiation of test,Not detected
same,By-product I,[3]; [18],0.04
same,Piperacillin,[3]; [18],99.92
same,Dissolution time,[6],43 s
same,Dissolution compared with the amorphous body,[6],dissolved in a short period of time than the amorphous body
"CCN1CCN(C(=O)N[C@@H](C(=O)N[C@@H]2C(=O)N3[C@@H]2SC(C)(C)[C@@H]3C(=O)O)c2ccccc2)C(=O)C1=O [Example 2, piperacillin sodium monohydrate]",Ratio of change of weight,[1]; [10],1.16 w/w %
same,Ratio of change of weight,[1]; [11],1.54 w/w %
same,Ratio of change of weight,[1]; [12],3.14 w/w %
same,Ratio of change of weight,[1]; [13],3.98 w/w %
same,Ratio of change of weight,[1]; [14],5.28 w/w %
same,Hygroscopic (moisture absorption) stability compared with the amorphous body,"[1]; listed as VI type crystal, sodium monohydrate",superior in the moisture absorption stability to the amorphous body
same,Coloration stability of exterior appearance,[2],stable
same,Color difference (ΔE),[2]; [15],0.39
same,Degree of whiteness (W),[2]; [15],95.64
same,Degree of yellowness (YI),[2]; [15],1.35
same,Color difference (ΔE),[2]; [16],0.54
same,Degree of whiteness (W),[2]; [16],95.60
same,Degree of yellowness (YI),[2]; [16],1.64
same,Color difference (ΔE),[2]; [17],0.79
same,Degree of whiteness (W),[2]; [17],95.57
same,Degree of yellowness (YI),[2]; [17],2.02
same,Degree of whiteness (W),[2]; [18],95.94
same,Degree of yellowness (YI),[2]; [18],0.85
same,Purity stability,[3],stable
same,By-product I,[3]; [19],0.07
same,Decomposition product I,[3]; [19],0.01
same,Piperacillin,[3]; [19],99.82
same,By-product I,[3]; [20],0.11
same,Decomposition product I,[3]; [20],0.02
same,Piperacillin,[3]; [20],99.75
same,By-product I,[3]; [21],0.11
same,Decomposition product I,[3]; [21],0.04
same,Piperacillin,[3]; [21],99.73
same,Decomposition product I,[3]; Initiation of test,Not detected
same,By-product I,[3]; [18],0.02
same,Piperacillin,[3]; [18],99.94
same,Dissolution time,[6],50 s
same,Dissolution compared with the amorphous body,[6],dissolved in a short period of time than the amorphous body
same,By-product I,[4],0.15
same,Piperacillin,[4],99.81
same,Total amount of relative substances,[4],0.19
same,Light exposure stability,[4]; result in words,stable
same,By-product I,[5],0.14
same,Piperacillin,[5],99.73
same,Total amount of relative substances,[5],0.27
"CCN1CCN(C(=O)N[C@@H](C(=O)N[C@@H]2C(=O)N3[C@@H]2SC(C)(C)[C@@H]3C(=O)O)c2ccccc2)C(=O)C1=O [III type crystal, piperacillin sodium monohydrate]",Hygroscopic (moisture absorption) stability compared with the amorphous body,[1]; sodium monohydrate,superior in hygroscopic stability to the amorphous body
same,Dissolution compared with the amorphous body,[6],dissolved in a short period of time than the amorphous body
